Key:
[1] = biological target: ZsGreen-bromodomain fusion protein (BRD4) (Homo sapiens, UniProt O60885); assay: Release of chromatin-bound ZsGreen-bromodomain fusion protein (BRD4), high content imaging of nuclear foci; conditions: read-out: Calculated EC50, release of chromatin-bound ZsGreen-BRD4 bromodomain fusion protein, number of nuclear foci
Description: (§1) Release of chromatin-bound ZsGreen-bromodomain fusion proteins in the presence of compound was monitored with high content imaging. Each curve represents the indicated compound and the indicated fusion protein (BRD4 or CBP). The number of nuclear foci increases with compound target engagement (values are mean of four fields per well of two technical replicates, +SEM).

[2] = biological target: T1, ZsGreen-bromodomain fusion protein (CBP) (Homo sapiens, UniProt Q92793); assay: Release of chromatin-bound ZsGreen-bromodomain fusion protein (CBP), high content imaging of nuclear foci; type: cell-based; conditions: number of nuclear foci, read-out: Calculated EC50, release of chromatin-bound ZsGreen-CBP bromodomain fusion protein
T1 construct: expressed in transfected cells
T1 sequence (Q92793 1085-1192 limits assumed): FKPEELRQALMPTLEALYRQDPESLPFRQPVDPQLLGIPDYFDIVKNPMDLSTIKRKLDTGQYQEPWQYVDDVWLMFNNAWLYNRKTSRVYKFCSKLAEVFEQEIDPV
Description: as §1

IRF4 mRNA expression = IRF4 mRNA expression in LP-1 cells by q-RTPCR; type: cell-based; conditions: 6 h, q-RTPCR normalized to GAPDH
Protocol: FIG. 8. CBP/EP300 and BET bromodomain inhibition have distinct transcriptional effects. […] Expression values for replicate compound treated samples were normalized to paired DMSO controls to obtain log2 fold change values. […] Cells were treated with compound for 6 h, and mRNA expression was assessed with q-RTPCR and normalized to GAPDH. Values represent the mean of n=3, ±SEM. […] LP-1 cells were treated with a titration of CPI203 for 6 h, and IRF4 expression was determined by q-RTPCR and normalized to GAPDH. Values represent the mean of n=2, ±SEM.

| SMILES | EC50 [1] [nM] | EC50 [2] [nM] | IRF4 mRNA expression (IRF4 mRNA expression) |
| --- | --- | --- | --- |
| Cc1sc2c(c1C)C(c1ccc(Cl)cc1)=N[C@@H](CC(N)=O)c1nnc(C)n1-2 [CPI203] | 80 | 1800 | does not directly regulate |
| CCC(=O)N1CCOc2c(cc(-c3ccc(OC)c(OC)c3)cc2OC[C@H]2CCCN(C)C2)C1 [I-CBP112] | > 20000 | 2600 |  |
| COc1ccc(CCc2nc3cc(-c4c(C)noc4C)ccc3n2C[C@H](C)N2CCOCC2)cc1Cl [SGC-CBP30] | 21500 |  | Dose-dependent inhibition |
